# Target: T1, POLγA:Y955C (Homo sapiens, UniProt P54098, Y955C)
# T1 sequence (P54098 1-1239 Y955C): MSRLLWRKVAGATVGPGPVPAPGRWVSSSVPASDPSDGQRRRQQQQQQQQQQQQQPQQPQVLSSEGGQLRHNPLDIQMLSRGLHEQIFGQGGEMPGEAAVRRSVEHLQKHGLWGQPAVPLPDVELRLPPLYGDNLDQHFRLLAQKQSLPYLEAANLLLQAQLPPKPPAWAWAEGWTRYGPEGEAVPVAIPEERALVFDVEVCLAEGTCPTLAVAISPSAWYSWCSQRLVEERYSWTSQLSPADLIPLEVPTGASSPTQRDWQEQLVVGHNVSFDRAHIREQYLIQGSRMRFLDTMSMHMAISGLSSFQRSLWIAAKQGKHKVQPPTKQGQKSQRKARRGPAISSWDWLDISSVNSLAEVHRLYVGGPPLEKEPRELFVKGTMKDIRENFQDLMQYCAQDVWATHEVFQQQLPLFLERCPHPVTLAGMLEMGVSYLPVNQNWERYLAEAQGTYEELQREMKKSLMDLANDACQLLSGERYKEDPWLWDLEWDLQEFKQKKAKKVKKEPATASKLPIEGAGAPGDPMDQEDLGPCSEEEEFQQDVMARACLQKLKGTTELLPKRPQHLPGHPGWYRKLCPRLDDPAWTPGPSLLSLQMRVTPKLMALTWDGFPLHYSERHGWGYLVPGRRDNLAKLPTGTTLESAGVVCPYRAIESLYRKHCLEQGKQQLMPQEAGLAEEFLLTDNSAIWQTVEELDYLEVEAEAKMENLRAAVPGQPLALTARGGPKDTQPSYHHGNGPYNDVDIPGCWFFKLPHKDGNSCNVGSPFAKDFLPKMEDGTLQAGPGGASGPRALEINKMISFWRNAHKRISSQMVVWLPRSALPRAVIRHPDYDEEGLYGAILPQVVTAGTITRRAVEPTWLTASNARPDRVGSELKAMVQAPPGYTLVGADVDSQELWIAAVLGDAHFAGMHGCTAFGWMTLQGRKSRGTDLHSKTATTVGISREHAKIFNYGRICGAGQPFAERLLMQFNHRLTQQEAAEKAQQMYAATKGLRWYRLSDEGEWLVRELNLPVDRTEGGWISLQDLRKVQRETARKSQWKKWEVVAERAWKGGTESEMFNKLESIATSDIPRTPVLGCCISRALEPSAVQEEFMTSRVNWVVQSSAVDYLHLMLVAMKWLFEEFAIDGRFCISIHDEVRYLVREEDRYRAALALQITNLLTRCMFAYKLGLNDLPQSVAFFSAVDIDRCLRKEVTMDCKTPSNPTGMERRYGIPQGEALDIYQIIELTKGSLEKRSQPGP
# T1 sequence (Q9UHN1 1-485 partner): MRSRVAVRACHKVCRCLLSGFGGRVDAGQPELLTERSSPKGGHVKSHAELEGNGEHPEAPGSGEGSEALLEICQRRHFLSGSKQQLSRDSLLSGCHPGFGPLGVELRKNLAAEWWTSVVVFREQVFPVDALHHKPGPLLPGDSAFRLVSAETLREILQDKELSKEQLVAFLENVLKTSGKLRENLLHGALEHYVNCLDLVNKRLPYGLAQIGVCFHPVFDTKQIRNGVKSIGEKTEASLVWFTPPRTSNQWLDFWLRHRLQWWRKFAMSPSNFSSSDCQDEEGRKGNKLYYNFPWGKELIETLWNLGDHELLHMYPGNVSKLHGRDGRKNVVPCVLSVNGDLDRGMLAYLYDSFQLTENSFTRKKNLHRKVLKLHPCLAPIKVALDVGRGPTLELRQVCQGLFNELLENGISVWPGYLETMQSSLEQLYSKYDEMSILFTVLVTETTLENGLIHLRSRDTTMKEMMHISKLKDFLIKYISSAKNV
# Test: DNA polymerization assay, POLγA:Y955C mutant
# Format: biochemical
# Settings: stimulation of polymerase activity, primed M13mp18 ssDNA, 37° C. 2 hours
# Experimental: DNA Polymerization Assay to Monitor Effects on Human Wildtype POLγ and Four Disease-Causing Mutant Variants of Human POLγ.
# The ability of small molecules to stimulate the polymerase activity of POLγ was analyzed in a quantitative fluorescence SYBR Green I assay with fluorescence intensity (FI) readout.
# In the presence of dNTPs, wild type human POLγ and mutant derivatives thereof were incubated with single-stranded, circular M13mp18 ssDNA hybridized to a short DNA oligonucleotide that functions as a primer for initiation of DNA synthesis. POLγ and mutant derivatives thereof will extend the primer and use the M13mp18 molecule as a template to synthesize long stretches of double-stranded DNA. SYBR Green I, which is a double-stranded DNA-binding dye, was used to quantify formation of double-stranded DNA in the reaction. When bound to double-stranded DNA, SYBR Green I fluorescence increases by up to 100-fold.
# The assay was performed in the 384-well plate format. Upon addition of compounds, changes in double-stranded DNA synthesis activity can be monitored by following effects on fluorescent intensity.
# The reactions also contained the accessory POLγB subunit, and the human mitochondrial single-stranded DNA binding protein (mtSSB).
# The DNA template mixture used in the assay contained 0.5 nM primed M13 mp18 ssDNA, 400 nM mtSSB, 0.1 mM Tris-HCl (pH 8.0), 0.1 mM dNTP, 10 mM MgCl2, 0.1 mg/mL BSA, 1 mM TCEP solution, and 0.02% Triton X-100. The DNA template mixture for the wild type protein contained either 100 μM dNTP, 1 μM dNTP, or 0.1 μM dNTP, designated in Table 2 as 100 μM, 1 μM, and 0.1 μM, respectfully.
# Microplates with compounds (0.1 μL in each well) to be tested in the assay were prepared from 10 mM compound stocks in 100% DMSO, and equal amounts of DMSO without any compound were added to positive and negative control wells.
# The protein mixture was dispensed (5 μL into each well) into compound plates and incubated at 37° C. for 15 minutes. After incubation, 5 μL of the DNA template mixture was dispensed into each well. The plates were then incubated at 37° C. for 2 hours.
# During incubation, a combined stop buffer and detection reagent solution was prepared. The buffer contained 25 mM EDTA (pH 8.0), 0.02% Triton X-100, and SYBR Green I [Invitrogen] diluted 10,000× (for fluorescent readout). EDTA will stop the enzymatic reaction by chelating magnesium ions.
row,SMILES,AC50 [µM]
1,"Cc1csc(-c2cccc(NS(=O)(=O)c3cc(C)c(Cl)cc3C)c2)n1 [Example 20, 4-chloro-2,5-dimethyl-N-(3-(4-methylthiazol-2-yl)phenyl)benzenesulfonamide]",0.3
2,"Cc1cnc(-c2cccc(NS(=O)(=O)c3cc(C)c(Cl)cc3C)c2)s1 [Example 21, 4-chloro-2,5-dimethyl-N-(3-(5-methylthiazol-2-yl)phenyl)benzenesulfonamide]",1
3,Cc1ccc(C)c(S(=O)(=O)Nc2cccc(-c3nccs3)c2)c1 [Example 60],0.4
4,"Cc1cc(S(=O)(=O)Nc2cccc(-c3cc(C4CC4)[nH]n3)c2)c(C)cc1Cl [Example 64, 4-chloro-N-(3-(5-cyclopropyl-1H-pyrazol-3-yl)phenyl)-2,5-dimethylbenzenesulfonamide]",> 100
5,"CC[C@@H]1CCCN1C(=O)c1cccc(NS(=O)(=O)c2cc(C)c(Cl)cc2C)c1 [Example 65, (R)-4-chloro-N-(3-(2-ethylpyrrolidine-1-carbonyl)phenyl)-2,5-dimethylbenzenesulfonamide]",2
6,"Cc1cc(-c2cccc(NS(=O)(=O)c3cc(C)c(Cl)cc3C)c2)n[nH]1 [Example 66, 4-chloro-2,5-dimethyl-N-(3-(5-methyl-1H-pyrazol-3-yl)phenyl)benzenesulfonamide]",2
7,"Cc1cc(S(=O)(=O)Nc2cccc(-c3cc[nH]n3)c2)c(C)cc1Cl [Example 68, N-(3-(1H-pyrazol-3-yl)phenyl)-4-chloro-2,5-dimethylbenzenesulfonamide]",2
8,"Cc1cc(S(=O)(=O)Nc2ccc3ccn(C(C)C)c3c2)c(C)cc1Cl [Example 69, 4-chloro-N-(1-isopropyl-1H-indol-6-yl)-2,5-dimethylbenzenesulfonamide]",0.4
9,"Cc1nc2ccc(NS(=O)(=O)c3cc(C)c(Cl)cc3C)cc2o1 [Example 70, 4-chloro-2,5-dimethyl-N-(2-methylbenzo[d]oxazol-6-yl)benzenesulfonamide]",7
10,"Cc1cc2cc(NS(=O)(=O)c3cc(C)c(Cl)cc3C)ccc2[nH]1 [Example 184, 4-chloro-2,5-dimethyl-N-(2-methyl-1H-indol-5-yl)benzenesulfonamide]",2

# Source: patent US20260138961A1, “MODULATORS OF MITOCHONDRIAL DNA REPLICATION” (Pretzel Therapeutics, Inc., priority 2022, published 2026)
